Results on four compounds are retold here after ChEMBL document CHEMBL1145697, “Halishigamides AD, New Cytotoxic Oxazole-Containing Metabolites from Okinawan Sponge Halichondria sp” (J Nat Prod, 1997).

The subject of one experiment is L1210. As to the kind of experiment: Cytotoxicity against mouse L1210 cells. The experiment is classed as functional, cell-based.
The test system of the next experiment is KB. As to the kind of experiment: Cytotoxicity against human KB cells. The experiment is classed as functional, cell-based.
Experiment [1] has as its system Trichophyton mentagrophytes. In words: Antifungal activity against Trichophyton mentagrophytes. Type of experiment: functional.

The structures appear in SMILES notation. Values after ≈ are worked out from the molar mass of the structure shown.

Usually IC50 stands for the point on the concentration scale where inhibition reaches its midpoint. A low value points to greater potency. Usually MIC stands for the smallest concentration in the dilution series that meets the test's criterion for growth inhibition. Lower therefore signals a more susceptible organism.

As for `CO[C@@H](C[C@@H]1OC(=O)C[C@@H](O)C[C@H](N)CC(=O)[C@H](C)[C@H](OC)c2coc(n2)-c2coc(n2)-c2coc(n2)/C=C/CC[C@H]1C)[C@@H](C)CCC(=O)[C@H](C)[C@@H](C/C=C/N(C)C=O)OC` [HALISHIGAMIDE A], the IC50 in the experiment with L1210 was found to be 0.0036 µg/mL (≈ 0.00422 µM); in the experiment on KB, 0.012 µg/mL (≈ 0.0141 µM). In addition, the MIC in experiment [1] stood at 0.1 µg/mL (≈ 0.117 µM).
The matching figures for `COC(CC1OC(=O)CC(O)C/C=C/C(=O)C(C)C(OC)C(=O)NC(=O)c2coc(n2)-c2coc(n2)/C=C/CCC1C)C(C)CCC(=O)C(C)C(C/C=C/N(C)C=O)OC` (configuration not stated) [HALISHIGAMIDE B]: 4.4 µg/mL (≈ 5.23 µM), 7.5 µg/mL (≈ 8.92 µM) and 25 µg/mL (≈ 29.7 µM).
Taken in the same sequence, the figures for `COC(=O)c1coc(-c2coc(/C=C/CCC(C)C(CC(OC)C(C)CCC(=O)C(C)C(C/C=C/N(C)C=O)OC)OC(=O)CC(O)C/C=C/C(=O)C(C)C(OC)C(N)=O)n2)n1` (configuration not stated) [HALISHIGAMIDE C] were 5.2 µg/mL (≈ 5.96 µM), 6.5 µg/mL (≈ 7.45 µM) and 25 µg/mL (≈ 28.6 µM).
The matching figures for `COC(=O)c1coc(/C=C/CCC(C)C(CC(OC)C(C)CCC(=O)C(C)C(C/C=C/N(C)C=O)OC)OC(=O)CC(O)C/C=C/C(=O)C(C)C(OC)c2coc(C(N)=O)n2)n1` (configuration not stated) [HALISHIGAMIDE D]: 1.1 µg/mL (≈ 1.26 µM), 1.8 µg/mL (≈ 2.06 µM) and 6.5 µg/mL (≈ 7.45 µM).
